Experimental data from PMC9516332 (Frontiers in Oncology, 2022).
Read-outs that look alike come from different tables or passages of the source.

System: 134 cancer cell lines
Test: Cell viability assay (ATPlite, 72 hours), IC50 on cancer cell line panel

IC50 (Homo sapiens, MOLM-13, read-out: IC50 in cell proliferation assay, MOLM-13 cell line (FLT3 ITD)): 1.17 µM | IC50 (Homo sapiens, MOLT-4, read-out: IC50 in cell proliferation assay, MOLT-4 cell line): 3.64 µM | IC50 (Homo sapiens, MV4-11, read-out: IC50 in cell proliferation assay, MV4-11 cell line (FLT3 ITD)): 0.23 µM | IC50 (Homo sapiens, MeWo, read-out: IC50 in cell proliferation assay, MeWo cell line): 3.92 µM | IC50 (Homo sapiens, NCCIT, read-out: IC50 in cell proliferation assay, NCC-IT cell line): 4.43 µM | IC50 (Homo sapiens, NCI-H82, read-out: IC50 in cell proliferation assay, cell line NCI-H82): 3.91 µM | IC50 (Homo sapiens, NCI-H460, read-out: IC50 in cell proliferation assay, NCI-H460 cell line): 4.69 µM | IC50 (Homo sapiens, NCI-H661, read-out: IC50 in cell proliferation assay, NCI-H661 cell line): 3.68 µM | IC50 (Homo sapiens, NCI-H716, read-out: IC50 in cell proliferation assay, cell line NCI-H716 (FGFR2-COL14A1)): 4.91 µM | IC50 (Homo sapiens, NCI-H1650, read-out: IC50 in cell proliferation assay, NCI-H1650 cell line (EGFR exon19del)): 0.006 µM | IC50 (Homo sapiens, NCI-H1975, read-out: IC50 in cell proliferation assay, NCI-H1975 cell line (EGFR p.L858R + p.T790M)): 0.153 µM | IC50 (Homo sapiens, NCI-H2228, read-out: IC50 in cell proliferation assay, NCI-H2228 cell line (EML4-ALK)): 4.89 µM | IC50 (Homo sapiens, OVCAR-3, read-out: IC50 in cell proliferation assay, cell line OVCAR-3): 0.023 µM | IC50 (Homo sapiens, PFSK-1, read-out: IC50 in cell proliferation assay, cell line PFSK-1): 4.48 µM | IC50 (Homo sapiens, RL95-2, read-out: IC50 in cell proliferation assay, cell line RL95-2 (EGFR p.A289V)): 0.008 µM | IC50 (Homo sapiens, RPMI-7951, read-out: IC50 in cell proliferation assay, cell line RPMI-7951 (BRAF p.V600E)): 3.97 µM | IC50 (Homo sapiens, RS4-11, read-out: IC50 in cell proliferation assay, cell line RS4;11): 3.36 µM | IC50 (Homo sapiens, Rec1, read-out: IC50 in cell proliferation assay, cell line REC-1): 0.845 µM | IC50 (Homo sapiens, SHP77, read-out: IC50 in cell proliferation assay, cell line SHP-77): 5.08 µM | IC50 (Homo sapiens, SK-BR-3, read-out: IC50 in cell proliferation assay, cell line SK-BR-3 (ERBB2 amplification)): 0.027 µM | IC50 (Homo sapiens, SK-N-AS, read-out: IC50 in cell proliferation assay, cell line SK-N-AS): 3.08 µM | IC50 (Homo sapiens, SK-N-FI, read-out: IC50 in cell proliferation assay, cell line SK-N-FI): 3.36 µM | IC50 (Homo sapiens, SK-N-MC, read-out: IC50 in cell proliferation assay, cell line SK-N-MC): 2.94 µM | IC50 (Homo sapiens, SK-N-SH, read-out: IC50 in cell proliferation assay, cell line SK-N-SH (ALK p.F1174L)): 2.47 µM | IC50 (Homo sapiens, SNU-5, read-out: IC50 in cell proliferation assay, cell line SNU-5 (MET amplification)): 3.41 µM | IC50 (Homo sapiens, SNU-16, read-out: IC50 in cell proliferation assay, cell line SNU-16 (FGFR2 amplification)): 3.88 µM | IC50 (Homo sapiens, SNU-C2B, read-out: IC50 in cell proliferation assay, cell line SNU-C2B (EGFR p.R165Q)): 5.59 µM | IC50 (Homo sapiens, SU-DHL-1, read-out: IC50 in cell proliferation assay, cell line SU-DHL-1 (NPM1-ALK)): 3.51 µM | IC50 (Homo sapiens, SU-DHL-6, read-out: IC50 in cell proliferation assay, cell line SU-DHL-6): 2.55 µM | IC50 (Homo sapiens, SUP-T1, read-out: IC50 in cell proliferation assay, cell line SUP-T1): 4.54 µM | IC50 (Homo sapiens, SW48, read-out: IC50 in cell proliferation assay, cell line SW48 (EGFR p.G719S)): 0.000636 µM | IC50 (Homo sapiens, SW480, read-out: IC50 in cell proliferation assay, cell line SW480): 4.83 µM | IC50 (Homo sapiens, SW626, read-out: IC50 in cell proliferation assay, cell line SW626): 5.24 µM | IC50 (Homo sapiens, SW780, read-out: IC50 in cell proliferation assay, cell line SW780 (FGFR3-BAIAP2L1)): 4.61 µM | IC50 (Homo sapiens, SW837, read-out: IC50 in cell proliferation assay, cell line SW837): 6.48 µM | IC50 (Homo sapiens, SW872, read-out: IC50 in cell proliferation assay, cell line SW872 (BRAF p.V600E)): 5.03 µM | IC50 (Homo sapiens, SW900, read-out: IC50 in cell proliferation assay, cell line SW900): 4.74 µM | IC50 (Homo sapiens, SW948, read-out: IC50 in cell proliferation assay, cell line SW948): 4.8 µM | IC50 (Homo sapiens, SW982, read-out: IC50 in cell proliferation assay, cell line SW982 (BRAF p.V600E)): 3.94 µM | IC50 (Homo sapiens, SW-620, read-out: IC50 in cell proliferation assay, cell line SW620): 5.18 µM | IC50 (Homo sapiens, T98G, read-out: IC50 in cell proliferation assay, cell line T98G): 4.59 µM | IC50 (Homo sapiens, TCC-SUP, read-out: IC50 in cell proliferation assay, cell line TCCSUP): 3.39 µM | IC50 (Homo sapiens, THP-1, read-out: IC50 in cell proliferation assay, cell line THP-1): 3.91 µM | IC50 (Homo sapiens, U2OS, read-out: IC50 in cell proliferation assay, cell line U2OS): 3.31 µM | IC50 (Homo sapiens, U-87 MG, read-out: IC50 in cell proliferation assay, cell line U-87MG ATCC): 4.41 µM | IC50 (Homo sapiens, U-118-MG, read-out: IC50 in cell proliferation assay, cell line U-118MG): 3.63 µM | IC50 (Homo sapiens, UMUC3, read-out: IC50 in cell proliferation assay, cell line UM-UC-3): 3.19 µM | IC50 (Hs766T, read-out: IC50 in cell proliferation assay, Hs 766T cell line): 5.01 µM | IC50 (L-82, read-out: IC50 in cell proliferation assay, L-82 cell line (NPM1-ALK)): 1.65 µM | IC50 (Rh30, read-out: IC50 in cell proliferation assay, cell line Rh30): 3.93 µM | IC50 (read-out: IC50 in cell proliferation assay, 11-18 cell line (EGFR p.L858R)): 0.002 µM | IC50 (read-out: IC50 in cell proliferation assay, Hs 852.T cell line): 3.75 µM | IC50 (read-out: IC50 in cell proliferation assay, JAR cell line): 3.05 µM | IC50 (read-out: IC50 in cell proliferation assay, cell line 5637): 0.031 µM | IC50 (read-out: IC50 in cell proliferation assay, cell line A-388): 0.019 µM | IC50 (read-out: IC50 in cell proliferation assay, cell line DB): 3.6 µM | IC50 (read-out: IC50 in cell proliferation assay, cell line DEL (NPM1-ALK)): 2.04 µM | IC50 (read-out: IC50 in cell proliferation assay, cell line ES-2 (BRAF p.V600E)): 2.99 µM | IC50 (read-out: IC50 in cell proliferation assay, cell line PA-1): 2.7 µM | IC50 (read-out: IC50 in cell proliferation assay, cell line PC-3): 5.26 µM | IC50 (read-out: IC50 in cell proliferation assay, cell line RD): 2.53 µM | IC50 (read-out: IC50 in cell proliferation assay, cell line RKO (BRAF p.V600E)): 3.58 µM | IC50 (read-out: IC50 in cell proliferation assay, cell line RL): 4.15 µM | IC50 (read-out: IC50 in cell proliferation assay, cell line RT-4 (FGFR3-TACC3)): 0.014 µM | IC50 (read-out: IC50 in cell proliferation assay, cell line SR (NPM1-ALK)): 3.55 µM | IC50 (read-out: IC50 in cell proliferation assay, cell line T24): 3.02 µM | IC50 (read-out: IC50 in cell proliferation assay, cell line TT (RET p.C634W)): 4.83 µM | IC50 (read-out: IC50 in cell proliferation assay, cell line VA-ES-BJ): 3.55 µM
SMILES: COc1cc2ncnc(Nc3ccc(F)c(Cl)c3)c2cc1NC(=O)/C=C/CN1CCCCC1 [dacomitinib]
